Results reported in US9359371B2, “Bicyclic substituted pyrimidine compounds” (Xuanzhu Pharma Co., Ltd., priority 2012, dated 2016).
Read-outs that look alike come from different tables or passages of the source.

Key:
PDE-5A enzyme = PDE-5A enzyme (Homo sapiens (Human), UniProt O76074); test: Caliper Mobility-Shift PDE-5A Assay; type: biochemical; conditions: Table 1; Avanafil value is the control
bovine retinal PDE-6 [1] = target: bovine retinal PDE-6 (Bos taurus (Bovine), UniProt P11541+P23439); test: PDE-6 enzyme assay, [3H]cGMP; type: biochemical
Chain of bovine retinal PDE-6 (Bos taurus (Bovine), UniProt P11541+P23439) (P11541 whole entry, looked up): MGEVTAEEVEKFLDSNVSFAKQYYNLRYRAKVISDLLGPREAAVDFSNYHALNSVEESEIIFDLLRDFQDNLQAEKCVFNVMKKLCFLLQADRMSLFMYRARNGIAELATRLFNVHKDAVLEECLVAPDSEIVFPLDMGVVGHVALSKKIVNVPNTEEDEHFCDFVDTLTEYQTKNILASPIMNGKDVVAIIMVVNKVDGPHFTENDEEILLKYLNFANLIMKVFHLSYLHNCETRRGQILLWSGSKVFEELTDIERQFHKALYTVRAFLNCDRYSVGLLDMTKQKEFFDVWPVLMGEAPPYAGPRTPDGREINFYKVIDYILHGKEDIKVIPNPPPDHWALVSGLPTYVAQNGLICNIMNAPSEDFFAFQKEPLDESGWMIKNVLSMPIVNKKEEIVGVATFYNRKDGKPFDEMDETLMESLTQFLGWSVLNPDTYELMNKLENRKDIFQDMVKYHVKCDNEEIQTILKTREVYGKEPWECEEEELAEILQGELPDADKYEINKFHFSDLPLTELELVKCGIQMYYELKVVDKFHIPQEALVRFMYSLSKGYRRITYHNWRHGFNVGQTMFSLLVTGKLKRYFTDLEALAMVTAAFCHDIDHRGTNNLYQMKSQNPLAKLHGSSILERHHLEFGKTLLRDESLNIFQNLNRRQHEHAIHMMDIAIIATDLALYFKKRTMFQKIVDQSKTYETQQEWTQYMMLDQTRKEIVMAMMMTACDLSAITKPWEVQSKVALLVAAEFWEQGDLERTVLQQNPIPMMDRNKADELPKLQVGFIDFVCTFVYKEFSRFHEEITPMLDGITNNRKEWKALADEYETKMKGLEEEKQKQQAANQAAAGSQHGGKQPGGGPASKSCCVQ
Chain of bovine retinal PDE-6 (Bos taurus (Bovine), UniProt P11541+P23439) (P23439 whole entry, looked up): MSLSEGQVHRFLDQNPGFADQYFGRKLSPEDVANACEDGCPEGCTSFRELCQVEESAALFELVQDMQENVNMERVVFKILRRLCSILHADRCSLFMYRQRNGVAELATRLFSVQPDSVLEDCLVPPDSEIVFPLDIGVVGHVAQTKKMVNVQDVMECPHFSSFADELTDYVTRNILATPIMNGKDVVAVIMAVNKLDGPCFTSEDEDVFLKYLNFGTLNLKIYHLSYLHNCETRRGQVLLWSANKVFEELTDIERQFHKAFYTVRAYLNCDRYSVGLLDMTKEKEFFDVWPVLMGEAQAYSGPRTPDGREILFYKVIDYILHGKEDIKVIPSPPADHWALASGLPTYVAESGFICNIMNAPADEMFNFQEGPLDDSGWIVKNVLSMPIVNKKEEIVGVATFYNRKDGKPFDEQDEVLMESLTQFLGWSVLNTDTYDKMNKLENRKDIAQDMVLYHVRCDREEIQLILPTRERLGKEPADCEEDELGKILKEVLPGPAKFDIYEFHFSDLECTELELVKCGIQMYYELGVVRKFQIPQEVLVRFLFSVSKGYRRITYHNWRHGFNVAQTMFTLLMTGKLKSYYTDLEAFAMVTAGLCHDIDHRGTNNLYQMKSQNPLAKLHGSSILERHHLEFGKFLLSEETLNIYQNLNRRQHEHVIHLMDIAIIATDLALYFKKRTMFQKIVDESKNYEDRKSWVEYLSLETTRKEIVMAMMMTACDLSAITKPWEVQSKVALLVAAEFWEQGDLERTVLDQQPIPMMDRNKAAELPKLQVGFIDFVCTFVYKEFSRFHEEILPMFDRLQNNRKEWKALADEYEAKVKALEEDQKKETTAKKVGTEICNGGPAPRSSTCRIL
Description: (§1) Experiment 3: Measurement of Enzyme Activity on PDE-6 Enzyme In Vitro
(§2) Source of enzyme: PDE-6, bovine retinal PDE-6
(§3) Method: The test compound or solvent was incubated at 25° C. for 15 min with enzyme solution (0.2 μg/mL) in Tris-HCl buffer of pH 7.5. 100 μM cGMP and 0.03 μM [^3H] cGMP were then added to activate the reaction. The mixture was incubated for 20 min. The reaction was stopped at 100° C. By addition of snake venom nucleotidase, the product [^3H] GMP was converted into [^3H] Guanosine, which was separated with AG1-X2 resin. The amount of [^3H] Guanosine was measured.

bovine retinal PDE-6 [2] = test: PDE-6 enzyme assay, [3H]cGMP; type: biochemical
Description: as §1, §2, §3

PDE-11 = PDE-11 (Homo sapiens (Human), UniProt Q9HCR9); test: Caliper Mobility-Shift PDE-11 Assay; type: biochemical; conditions: Table 4; maximum final concentration 10 μM
Chain of PDE-11 (Q9HCR9 whole entry): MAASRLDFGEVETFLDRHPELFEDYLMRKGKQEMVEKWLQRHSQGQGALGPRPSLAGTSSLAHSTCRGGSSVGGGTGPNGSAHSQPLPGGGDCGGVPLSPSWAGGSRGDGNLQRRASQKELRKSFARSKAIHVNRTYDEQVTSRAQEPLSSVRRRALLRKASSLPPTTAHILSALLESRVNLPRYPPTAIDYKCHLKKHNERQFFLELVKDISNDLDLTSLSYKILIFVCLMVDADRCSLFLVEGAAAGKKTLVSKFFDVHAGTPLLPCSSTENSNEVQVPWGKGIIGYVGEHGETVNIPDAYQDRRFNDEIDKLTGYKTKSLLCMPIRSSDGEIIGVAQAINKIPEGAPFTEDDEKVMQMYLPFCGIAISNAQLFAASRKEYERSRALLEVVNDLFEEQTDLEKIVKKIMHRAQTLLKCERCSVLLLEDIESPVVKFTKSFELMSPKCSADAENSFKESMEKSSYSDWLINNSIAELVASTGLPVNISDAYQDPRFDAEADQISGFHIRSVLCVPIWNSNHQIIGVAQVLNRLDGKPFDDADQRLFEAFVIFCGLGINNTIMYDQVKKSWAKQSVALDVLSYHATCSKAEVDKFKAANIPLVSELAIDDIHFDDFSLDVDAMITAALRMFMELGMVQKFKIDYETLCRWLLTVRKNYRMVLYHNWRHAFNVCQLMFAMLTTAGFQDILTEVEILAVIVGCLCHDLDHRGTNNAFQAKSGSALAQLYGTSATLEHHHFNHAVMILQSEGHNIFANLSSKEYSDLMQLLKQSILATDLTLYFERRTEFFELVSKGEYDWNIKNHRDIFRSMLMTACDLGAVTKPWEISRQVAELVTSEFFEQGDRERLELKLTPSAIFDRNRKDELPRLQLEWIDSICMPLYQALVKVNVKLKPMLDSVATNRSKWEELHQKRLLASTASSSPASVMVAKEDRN
Description: Experiment 4: Measurement of Pharmacological Activity on PDE-11 Enzyme In Vitro
Method: enzyme assay, Caliper Mobility-Shift PDE-11 Assay
The test compound was accurately weighed, dissolved in DMSO, mixed thoroughly and formulated into 10 mM. The above stock solution was diluted to a concentration of 0.5 mM with DMSO, and then was gradiently diluted by a dilution factor of 3.162, resulting in 11 concentrations in total.
To a 96-well plate, 20 μL of 10 μM FL-cGMP as the substrate was added; then 1 μL solution of the compound in DMSO or DMSO solution without compound was added; and then 29 μL of 0.28 ng/μL PDE-11 enzyme buffer (100 mM Hepes pH 7.5, 5 mM MgCl2, 0.002% Brij-35) was added. The maximum final concentration of the compound was 10 μM. The plate was incubated at 30° C. for 1 h, and 20 μL of 70 μM EDTA was then added to stop the reaction. 26 μL of solution of each well was transferred to a 384-well plate. The conversion was read on a EZ reader II. The Inhibition rate was calculated by the formula below, and used to calculate IC50 by Prism 5.0 Inhibition rate=[Conversion (ZPE)−Conversion (sample)]×100/[Conversion (ZPE)−Conversion (HPE)]
Note: HPE: control without enzyme; ZPE: control without compound

[3] = tested on: length of New Zealand rabbit's penis; test: Pharmacological activity in vivo (intravenous injection), rabbit penis length; set-up: species or system New Zealand rabbits; conditions: Table 5; iv 10 mg/kg, 1 mL/kg; sodium nitroprussiate 0.2 mg/kg iv 5 min after; 0-120 min
Description: Experiment 5: Assay of Pharmacological Activity In Vivo (Intravenous Injection)
After accommodating with the environment, the New Zealand rabbits were grabbed everyday. When the rabbits were accustomed to the repeated grabbing, drug administration was began. The animals were randomly divided into groups by weight. The test compounds were separately dissolved in menstruum. […] The corresponding test compounds were injected into the auricular veins of animals of each group. The dosage of the compounds in Table 5 was 10 mg/kg, and the administration volume was 1 mL/kg. The dosage of the compounds in Table 6 was 10 mg/kg, and the administration volume was 2 mL/kg. 0.2 mg/kg sodium nitroprussiate was intravenously injected into the rabbits 5 min after the administration of the test compounds, with the administration volume of 0.5 mL/kg.
The length of the rabbit's penis was measured with a digital caliper before and 10, 15, 30, 50, 60, 90 and 120 min after the administration. Touch of the rabbit's penis by the caliper was avoided during the measurements.

[4] = tested on: length of New Zealand rabbit's penis; test: Pharmacological activity in vivo (oral administration, 70 mg/kg, with SNP), rabbit penis length; set-up: species or system New Zealand rabbits; conditions: Table 8; oral 70 mg/kg; SNP 0.2 mg/kg iv 60 min after; 0-180 min
Description: Experiment 7: Assay of Pharmacological Activity In Vivo (Oral Administration)
After accommodating with the environment, the New Zealand rabbits were grabbed everyday. When the rabbits were accustomed to the repeated grabbing, drug administration was began. The animals were randomly divided into groups by weight, with 6 rabbits of each group. […] The corresponding test compounds were orally administrated to animals of each group. The dosage was 70 mg/kg, and the administration volume was 1 mL/kg. SNP (0.2 mg/kg, 0.5 mL/kg) was injected into the auricular veins of rabbits 60 min after the administration of the test compounds. The length of the rabbit's penis was measured with a digital caliper before and 10, 15, 30, 50, 60, 65, 70, 75, 90, 110, 120 and 180 min after the administration. Touch of the rabbit's penis by the caliper was avoided during the measurements.

`COc1ccc(CNc2nc(N3CC4CC4C3)ncc2C(=O)N[C@H]2CC[C@H](O)CC2)cc1Cl` (stereo partly drawn) [Compound 11, 2-(3-azabicyclo[3.1.0]hexan-3-yl)-4-((3-chloro-4-methoxybenzyl)amino)-N-(trans-4-hydroxycyclohexyl)pyrimidine-5-formamide] was tested, and the IC50 (PDE-5A enzyme) was 4.02 nM, the IC50 (bovine retinal PDE-6 [1]; Table 3, read-out: IC50 on PDE-6) was 61 nM and the IC50 (bovine retinal PDE-6 [1]; Table 4-1, read-out: PDE-6 (IC50 nM)) was 61 nM. The “Selectivity (PDE-6/PDE-5)” value (bovine retinal PDE-6 [2]; IC50 for PDE-6/IC50 for PDE-5) was 148, the “selectivity on PDE-5 enzyme versus PDE-6 (in words)” value (bovine retinal PDE-6 [2]; selectivity >70 called high) was “higher selectivity on PDE-5 enzyme than to PDE-6” and the IC50 (PDE-11) was > 10000 nM. For the same molecule, the “AUC of penis length” value [3] was 323.3 mm × min and the “AUC of penis length” value [4] was 540.7 mm × min.
